Source: patent US11180475B2, “Crystal form I of a 5-aminopyrazole carboxamide compound as BTK inhibitor” (SinoMab BioScience Limited, priority 2017, dated 2021)

Assays:
T cells = experiment: T cell inhibition assay (CD69, flow cytometry); format: cell-based; conditions: Homo sapiens, 1 hour exposure, washed, anti-CD3/CD28 beads 18 hours, read-out: IC50, inhibitory activity on T cells
Procedure: T cells were obtained by purification of healthy donor blood through negative selections using the RosetteSep Human T Cell Enrichment Mix. Cells were plated in a growth medium (10% RPMI+10% fetal bovine serum) and the inhibitor was added at specified concentrations. After incubating for 1 hour at 37° C., the cells were washed three times, and each wash was used for 10-fold dilution in the growth medium. The cells were then stimulated with anti-CD3/CD28 coated beads (bead/cell ratio 1:1) for 18 hours at 37° C. Cells were subsequently stained with an anti-CD69-PE antibody and analyzed by flow cytometry using standard conditions. According to the above experimental methods, compound (R)-5-amino-3-(4-((5-chloropyridin-2-yl)oxy)phenyl)-1-(4-cyano-4-azaspiro[2.5]oct-6-yl)-1H-pyrazole-4-carboxamide (I) has very low or no inhibitory activity on T cells, with an IC50 values higher than 4000 nM.

hERG = hERG (Homo sapiens, UniProt Q12809); experiment: hERG binding assay (Dofetillide method); conditions: read-out: IC50 for hERG inhibition
From the text: The IC50 value of a compound for hERG inhibition can be determined according to the method described in the patent application US20050214870 A1.

[1] = system: B cells in human whole blood; experiment: Inhibition assay on human whole blood B cells (CD69); format: cell-based; conditions: B-cell, anti-human IgM F(ab')2 stimulation 20 hours, read-out: IC50, inhibitory activity on B cells in human whole blood
Procedure: Human whole blood (hWB) was obtained from healthy volunteers and blood was collected by venipuncture into a heparin sodium-anticoagulant Vacutainer tube. Test compounds were diluted 10 times in PBS to the required initial drug concentration), followed by three-fold serial dilutions with 10% DMSO in PBS to obtain a 9-point dose response curve. 5.5 μL of each diluted compound was added to the aiil 96-well V-bottom plate in duplicate; 5.5 μL of 10% DMSO in PBS was added to control and non-stimulated wells. Human whole blood (100 μL) was added to each well, and after mixing, the plates were incubated for 30 minutes at 37° C. and in 5% CO2, 100% humidity. An anti-human IgM F(ab′)2 (Southern Biotech) (10 μL of 500 μg/mL solution, 50 μg/mL final concentration) was added to each well (except for non-stimulated wells) with vortexing, and the plate was further incubated for another 20 hours. After 20-hour incubation, samples were incubated with 20 μL of fluorescent probe-labeled APC mouse anti-human CD69 (BD Pharmingen) for 30 minutes at 37° C., 5% CO2, 100% humidity. Induced controls, unstained, and single-stained samples were included for compensation and initial voltage settings. […] Results were initially analyzed using FACS analysis software (Flow Jo). The IC50 values were then calculated using XLfit v3, Equation 201.

Pharmacokinetics in rats = format: in vivo; conditions: rat, plasma, oral; male SD rats, p.o. 10 mg/kg vs i.v. 2 mg/kg
Procedure: 1. Male SD rats (HFK) were acclimatized in the laboratory for 7 days after arrival.
2. […], 3 animals in each group. One group was dosed by oral gavage (p.o.), and the other group was dosed by tail vein injection (i.v.). Rats in the p.o. group were fasted overnight before drug administration.
3. After drug administration, blood samples were collected from the rats via the posterior orbital venous plexus approach at the following time points: I.V.: (before drug administration), 0.08 hours, 0.25 hours, 0.5 hours, 1 hour, 2 hours, 4 hours, 8 hours, 24 hours; P.O.: 0.08 hour, 0.25 hour, 0.5 hour, 1 hour, 2 hours, 4 hours, 8 hours, 24 hours. About 300 μl of blood were collected at each collection time point.
4. The collected blood samples were centrifuged at 12000 rpm for 5 minutes at 4° C., and then the upper plasma samples were collected and stored in a refrigerator at −20° C.
6. […]
The pharmacokinetic parameters were calculated using the pharmacokinetic professional software WinNonlin [Model: Phoenix™ WinNonlin® 6.1; Manufacturer: Pharsight Corporation]. […]

Recombinant Btk = Recombinant Btk (Homo sapiens, UniProt Q06187); experiment: Kinase activity (BTK) inhibition assay, TR-FRET; format: biochemical; conditions: read-out: IC50, inhibitory effect on BTK kinase activity
Procedure: The inhibitory effects of compound (R)-5-amino-3-(4-((5-chloropyridin-2-yl)oxy)phenyl)-1-(4-cyano-4-azaspiro[2.5]oct-6-yl)-1H-pyrazole-4-carboxamide (I) on BTK kinase activity were tested in an assay based on a time resolved fluorescence resonance energy transfer (TR-FRET) method. Recombinant Btk was pre-incubated with the compound disclosed herein in an assay buffer containing 50 mM Tris pH 7.4, 10 mM MgCl2, 2 mM MnCl2, 0.1 mM EDTA, 1 mM DTT, 20 nM SEB, 0.1% BSA, 0.005% tween-20 at room temperature for 1 hour. The reaction was initiated by the addition of ATP (at the ATP Km concentration) and the peptide substrate (Biotin-[…]-NH2). After incubation at room temperature for 1 hour, an equal volume of stop solution containing 50 mM HEPES pH 7.0, 800 mM KF, 20 mM EDTA, 0.1% BSA, p-Tyr66 antibody linked with Eu cryptate and streptavidin-labeled XL665 was added to stop the reaction. The plate was incubated at room temperature for an additional hour and then the TR-FRET signal was read on a BMG PHERAstar FS instrument (ex337 nm, em 620 nm/665 nm). Based on the ratio of the signal of fluorescence at 615 nm to 665 nm, the residual enzyme activity was calculated with an increased compound concentration. IC50 of each compound was obtained by fitting the data to the four-parameter equation of Graphpad Prism software.

[2] = system: five CYP450 enzymes in human liver microsomes; experiment: Inhibition of CYP enzymes, cocktail probe substrates; format: in vitro ADME; conditions: CYP1A2, CYP2D6, CYP2C9, CYP2C19, CYP3A4
Procedure: METHOD: This experiment simultaneously determined the inhibitory effects of a compound on five CYP450 enzymes in human liver microsomes using the cocktail probe substrates approach. The human microsomes were from BD Gentest.
The reaction was carried out in 100 mM of phosphate buffer, with a total volume of 200 μL. The concentration of microsomes in the reaction system was 0.25 mg/mL, and the concentration of the test compound was 20 μM, 6.67 μM, 2.22 μM, 0.74 μM, and 0.25 μM. The specific probe substrates and concentration were phenacetin (CYP1A2) 40 μM, dextromethorphan (CYP2D6) 5 μM, diclofenac (CYP2C9) 10 μM, S-mephenytoin (CYP2C19) 40 μM, testosterone (CYP3A4) 80 μM, respectively. The mixture was pre-incubated in a 37° C. thermostatic shaker for 5 minutes, and the NADPH-generating system (containing 1.3 mM NADP+, 3.3 mM glucose 6-phosphate, […] glucose 6-phosphate dehydrogenase, 3.3 mM MgCl2) was added to start the reaction. After incubation for 45 minutes, the reaction was stopped by adding an equal volume of acetonitrile. The tube was vortexed and centrifuged at 13,000 rpm. The resulting supernatant was subjected to LC-MS-MS to determine the amount of produced metabolites. […] The final result of this experiment is the calculated half inhibitory concentration IC50 value.

[3] = Stability study in liver microsomes; format: in vitro ADME, human, dog, rat, and mouse; conditions: 60 minutes incubation, 37° C., liver microsomes of various species
Procedure: 1. Compound (R)-5-amino-3-(4-((5-chloropyridin-2-yl)oxy)phenyl)-1-(4-cyano-4-azaspiro[2.5]oct-6-yl)-1H-pyrazole-4-carboxamide (I) was dissolved in acetonitrile to prepare a stock solution having a concentration of 0.5 mM.
2. 2 μL of stock solution was added to a 1.5 ml centrifuge tube, and then 148 μL of phosphate buffer (100 mM, pH 7.4) and 10 μL of liver microsome suspension (the protein concentration was 20 mg/ml) [BD Gentest] were added. The liver microsomes were derived from the species of human, dog, rat, and mouse; The control group was added with 158 μL of phosphate buffer (100 mM, pH 7.4).
3. The mixture obtained in step 2 was pre-incubated in a 37° C. water bath for 3 minutes; then 40 μL of NADPH generating system (containing NADP+: 6.5 mM, glucose 6-phosphate: 16.5 mM, MgCl2: 16.5 mM, glucose 6-phosphate dehydrogenase: 2 U/ml) was added to initiate the reaction. The reaction system was incubated in a 37° C. water bath for 1 hour.
4. After the reaction was carried out for 1 hour, the centrifuge tube was removed from the water bath, and the reaction was terminated by adding 400 μL of acetonitrile, followed by vortexing for 3 minutes. […]
6. After 60 minutes of incubation, the percentage of remaining drug in the incubation system was calculated as follows: Remaining Drug (%)=Cr/C0×100%

normal human B cells = experiment: B cell inhibition assay (CD69, flow cytometry); format: cell-based; conditions: 1 hour exposure, washed off, IgM F(ab')2 stimulation 18 hours, read-out: IC50, inhibitory activity on B cells
Procedure: Temporary exposure to a BTK inhibitor in vitro is sufficient to inhibit B cell activation in normal human B cells.
B cells were obtained by purification from healthy donor blood through negative selection using the RosetteSep human B Cell Enrichment Mix. Cells were plated in a growth medium (10% RPMI+10% fetal bovine serum) and the inhibitor was added at specified concentrations. After incubation at 37° C. for 1 hour, the cells were washed three times, and each wash was used for 8-fold dilution in the growth medium. The cells were then stimulated with 10 μg/mL IgM F(ab′)2 at 37° C. for 18 hours. Cells were subsequently stained with an anti-CD69-PE antibody and analyzed by flow cytometry using standard conditions.

[4] = system: diffuse large B-cell lymphoma cell line TMD-8; experiment: Pharmacodynamic assay, TMD-8 xenograft; format: in vivo; conditions: NOD.SCID mice, p.o. daily for 21 days
Procedure: Severe immunodeficiency NOD.SCID mice were purchased from Beijing Vital River Laboratory Animal Technology Co., Ltd., and were housed in SPF grade animal room. After TMD-8 cells were cultured to the sufficient amount, the cells were collected by centrifugation and washed twice with PBS. Finally, the cells were resuspended in serum-free RPMI 1640 medium and Matrigel (1:1 v/v). 0.2 ml of cell suspension was injected subcutaneously on the right flank of each mouse using 1 ml syringe and 25G syringe needle. The tumor size was measured with a caliper after about one week post injection. The tumor volume was calculated according to the following formula: tumor volume=(length×width^2)/2. When the tumor volume reached about 100-200 mm^3, the mice were grouped and p.o. administered daily for 21 days.

Sequence of hERG (Q12809 whole entry): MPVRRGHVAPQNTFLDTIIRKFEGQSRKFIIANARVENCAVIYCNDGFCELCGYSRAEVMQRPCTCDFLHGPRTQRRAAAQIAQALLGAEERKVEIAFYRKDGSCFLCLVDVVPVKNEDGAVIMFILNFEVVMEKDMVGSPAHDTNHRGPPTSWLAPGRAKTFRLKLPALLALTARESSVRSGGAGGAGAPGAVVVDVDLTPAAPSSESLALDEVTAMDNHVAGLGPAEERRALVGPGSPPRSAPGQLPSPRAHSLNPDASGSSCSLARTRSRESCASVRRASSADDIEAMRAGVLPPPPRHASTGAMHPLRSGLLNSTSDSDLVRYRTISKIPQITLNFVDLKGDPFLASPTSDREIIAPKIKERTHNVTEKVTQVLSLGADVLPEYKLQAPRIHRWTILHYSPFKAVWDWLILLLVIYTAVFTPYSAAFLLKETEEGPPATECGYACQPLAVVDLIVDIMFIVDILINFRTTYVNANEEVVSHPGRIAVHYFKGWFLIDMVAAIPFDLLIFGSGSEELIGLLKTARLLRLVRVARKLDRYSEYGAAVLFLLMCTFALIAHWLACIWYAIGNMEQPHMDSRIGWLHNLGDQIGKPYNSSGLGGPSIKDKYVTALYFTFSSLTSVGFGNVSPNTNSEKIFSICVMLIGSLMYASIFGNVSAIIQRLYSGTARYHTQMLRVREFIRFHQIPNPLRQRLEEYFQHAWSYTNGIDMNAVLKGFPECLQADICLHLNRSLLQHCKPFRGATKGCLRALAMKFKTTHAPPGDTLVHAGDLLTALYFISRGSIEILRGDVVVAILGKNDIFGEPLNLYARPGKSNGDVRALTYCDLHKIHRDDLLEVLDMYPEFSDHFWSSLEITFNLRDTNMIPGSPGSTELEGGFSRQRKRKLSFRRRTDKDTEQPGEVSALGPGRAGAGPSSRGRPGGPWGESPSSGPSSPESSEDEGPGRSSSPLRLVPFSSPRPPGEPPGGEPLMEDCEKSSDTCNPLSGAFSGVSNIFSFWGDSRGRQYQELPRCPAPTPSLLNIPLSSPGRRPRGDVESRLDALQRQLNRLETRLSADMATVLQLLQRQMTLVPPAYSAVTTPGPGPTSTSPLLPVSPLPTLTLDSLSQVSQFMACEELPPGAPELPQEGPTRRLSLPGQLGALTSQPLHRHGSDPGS
Sequence of Recombinant Btk (Q06187 whole entry): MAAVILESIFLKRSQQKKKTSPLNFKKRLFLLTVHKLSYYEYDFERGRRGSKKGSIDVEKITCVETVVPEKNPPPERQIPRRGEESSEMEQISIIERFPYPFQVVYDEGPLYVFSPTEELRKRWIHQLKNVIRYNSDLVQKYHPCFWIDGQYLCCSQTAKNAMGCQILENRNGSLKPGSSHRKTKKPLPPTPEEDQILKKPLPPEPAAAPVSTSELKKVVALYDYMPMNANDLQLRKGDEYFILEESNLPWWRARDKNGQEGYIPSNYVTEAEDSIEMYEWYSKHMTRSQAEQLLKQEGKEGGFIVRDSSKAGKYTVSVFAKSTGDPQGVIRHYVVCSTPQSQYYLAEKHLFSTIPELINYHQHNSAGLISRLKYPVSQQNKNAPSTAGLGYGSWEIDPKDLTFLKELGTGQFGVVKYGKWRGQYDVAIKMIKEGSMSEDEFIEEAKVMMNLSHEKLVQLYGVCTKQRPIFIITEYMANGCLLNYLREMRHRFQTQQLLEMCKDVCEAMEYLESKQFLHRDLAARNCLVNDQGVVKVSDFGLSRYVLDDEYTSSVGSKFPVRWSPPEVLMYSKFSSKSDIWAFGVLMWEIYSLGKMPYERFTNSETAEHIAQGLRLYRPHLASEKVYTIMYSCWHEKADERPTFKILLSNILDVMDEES

`N#CN1C[C@H](n2nc(-c3ccc(Oc4ccc(Cl)cn4)cc3)c(C(N)=O)c2N)CCC12CC2` [Compound I, (R)-5-amino-3-(4-((5-chloropyridin-2-yl)oxy)phenyl)-1-(4-cyano-4-azaspiro[2.5]oct-6-yl)-1H-pyrazole-4-carboxamide] gave an IC50 (T cells) of over 4000 nM, an IC50 (hERG) of over 1000 nM and an IC50 [1] of under 200 nM. The bioavailability (Pharmacokinetics in rats) was over 40%, the IC50 (Recombinant Btk) was under 100 nM and the “inhibitory effect on various CYP enzymes” value [2] was “very low or no inhibitory effect”. For the same compound, the “Remaining Drug (%), residual percentage in liver microsomes” value [3] was over 30%, the IC50 (normal human B cells) was under 10 nM and the “inhibition of TMD-8 tumor growth in vivo” value [4] was “significantly inhibited the growth”.
